The assay addresses T1, SOST (Homo sapiens, UniProt Q9BQB4).
T1 construct: commercial recombinant SOST (SinoBio 10593-H07H), biotinylated and immobilized on Octet SSA biosensors
T1 sequence (Q9BQB4 24-213): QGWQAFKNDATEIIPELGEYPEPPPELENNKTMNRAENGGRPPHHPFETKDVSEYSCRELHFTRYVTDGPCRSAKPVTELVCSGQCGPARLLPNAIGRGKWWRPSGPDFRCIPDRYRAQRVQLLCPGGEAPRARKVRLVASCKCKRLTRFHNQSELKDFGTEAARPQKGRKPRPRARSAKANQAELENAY
In words: biochemical. The arrangement: biolayer interferometry (Octet K2), compound binding to immobilized biotinylated SOST, multi-concentration. The note with it: multi-concentration BLI, 30 C. How it is done: The affinity of S6 binding to SOST was measured, as described previously using an Octet K2 instrument (ForteBio). All assays were run at 30 °C with continuous shaking of 1000 RPM using the assay buffer of 0.1% BSA, 0.01% Tween-20 and 1% DMSO in PBS. SOST (10,593-H07H, SinoBio, Beijing, China) at 0.15 mg/ml was dissolved in sterile water, biotinylated and immobilized onto the Octet SSA biosensors. S6 (C29H24N6O2S, molecular weight 520.62, Chemdiv, USA) was dissolved in PBS and adjusted to different concentrations for BLI. After each round of association and disassociation, the SOST-contained sensors were washed with the assay buffer for 10 min to remove nonspecifically bound molecules. Raw kinetic data were obtained. The kon and koff values were analyzed using the software provided and the Kd values were calculated, based on double reference subtraction. We next sought to model the interaction of SOST with STAT3 and identify its inhibitors from a small-molecule chemical library (Fig. 4A). […] Subsequently, we performed virtual screening for compounds that might block the binding of SOST to STAT3 (Fig. 4C). We screened approximately 120,000 compounds and obtained 38 candidates. We tested single-concentration of them in BLI test. Data from 35 of these compounds are shown in Figure S4 and SI Table 1, except for compounds 2, 10, and 25, which could not be detected due to poor solubility. […] compounds (6, 11, 12, 17, 22, 24, 34, 38) were screened by multi-concentration gradients to obtain R2, Kd, kdis, and response parameters (Fig. 4D-E, Fig. S5 and SI Table 2). Four compounds, 6, 11, 28, and 34, were selected for drug sensitivity testing (Fig. 4F and Fig. S5). […] S6 boudn to SOST with a high affinity (Fig. 4G).

Drawing on PMC9798707, “Targeting SOST using a small-molecule compound retards breast cancer bone metastasis” (Molecular Cancer, 2022), this text covers Kd, kon and koff for one compound.

Turning to `Cc1ccc(-c2nnc(Nc3ccccc3)c3ccccc23)cc1S(=O)(=O)NCc1nc2ccccc2[nH]1` [compound 6, S6], the Kd was 399 µM and the kon worked out at 765 M⁻¹ s⁻¹. The koff (read-out: kdis) is 0.305 s⁻¹.

As a reminder, the Kd is the free concentration of one partner at which half of the binding sites on the other are occupied at equilibrium, for simple one-to-one binding. The low end stands for higher affinity, the high end for lower affinity. As a reminder, the kon is the second-order rate constant of association. A lower kon goes with slow association.
